As a reminder, the IC50 is the concentration that inhibits the measured activity by half.

Each structure is given as a SMILES string. Active and inactive are the calls of the source.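 How the source made its calls: active means compounds whose IC50 against the worm SKN-1 reporter ratio signal is 5 µM or lower; inactive means the rest.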 Where only a bound is given, the exact number is not on record here.

The test deals with C. elegans VP596 gst-4::GFP/RFP ratio, acrylamide, 24 h. Briefly: gst-4 reporter suppression by analogs in C. elegans – whole organism, GFP/RFP fluorescence ratio, strain VP596, SKN-1 inhibitor project, SAR follow-up (AID 652140).
With `CCOc1cc(CNCc2ccccc2)cc(Cl)c1OCc1ccc(F)cc1`, the IC50 is 17.4 µM (inactive). The result for `CCOc1cc(C(=O)NC2CCCC2)cc(Cl)c1OCc1ccc(F)cc1` reads > 64 µM (inactive); that for `CCOc1cc(CNC(C)C)cc(Cl)c1OCc1ccc(F)cc1`, 16.7 µM (inactive).

On to `CCOc1cc(CNC2CCCC2)cc(Cl)c1OCc1ccccc1F`, for which the IC50 was 0.767 µM. In the case of `CCOc1cc(CNC2CCCC2)cc(Cl)c1OCc1ccccc1Cl`, the IC50 was 12 µM (inactive). With `CCOc1cc(CNC2CCC2)cc(Cl)c1OCc1ccc(F)cc1`, the IC50 is 8.68 µM (inactive).

Turning to `CCOc1cc(CNC2CCCC2)cc(Cl)c1OCc1ccc(F)cc1`, the IC50 is 1.04 µM. For the compound `CCOc1cc(CNC2CCCCC2)cc(Cl)c1OCc1ccc(F)cc1`, the IC50 is 9.66 µM (inactive). Regarding `Fc1ccc(-c2csc(-c3cccnc3)n2)cc1`, the IC50 was 6.09 µM (inactive). Regarding `CCOc1cc(CNc2ccccc2)cc(Cl)c1OCc1ccc(F)cc1`, the IC50 was > 64 µM (inactive). The figure for `CCOc1cc(CNC2CCCC2)cc(Cl)c1OCc1ccc(Cl)cc1` is 0.244 µM; for `Clc1ccc(-c2csc(-c3cccnc3)n2)cc1` it is 1.51 µM. With `c1ccc(-c2csc(-c3ccncc3)n2)cc1`, the IC50 is 2.58 µM.

Take `Fc1ccc(-c2csc(-c3ccncc3)n2)cc1`: the 50% inhibitory concentration (IC50) was 2.03 µM.

As to `CCOc1cc(CNC2CCCC2)cc(Cl)c1OCc1cccc(F)c1`, the IC50 is 7.17 µM (inactive). As to `COc1cc(CNC2CCCC2)cc(Cl)c1OCc1ccc(F)cc1`, the IC50 was 0.826 µM. For the compound `CCOc1cc(CNC2CCCC2)cc(Cl)c1OCc1ccc(OC)cc1`, the IC50 was > 64 µM (inactive).

Regarding `CCOc1cc(CNC2CCCC2)cc(Cl)c1OC`, the IC50 was > 64 µM (inactive).

With `Cc1ccc(-c2csc(-c3cccnc3)n2)cc1`, the IC50 was 30 µM (inactive). As for `COc1ccc(-c2csc(-c3cccnc3)n2)cc1`, the IC50 was > 64 µM (inactive). In the case of `Cc1ccc(-c2csc(-c3ccncc3)n2)cc1`, the IC50 is 17.7 µM (inactive). Consider `c1ccc(-c2csc(-c3cccnc3)n2)cc1`, for which the IC50 was 19.6 µM (inactive). On to `CCOc1cc(CNC2CCCC2)cc(Cl)c1OCc1ccc(C)cc1`, for which the IC50 is 25.8 µM (inactive).

On to `Fc1ccc(COc2ccc(CNC3CCCC3)cc2Cl)cc1`, for which the IC50 is 4.18 µM.

Take `COc1ccc(-c2csc(-c3ccncc3)n2)cc1`: the IC50 was 18 µM (inactive). Regarding `Clc1ccc(-c2csc(-c3ccncc3)n2)cc1`, the IC50 is 1.1 µM. The figure for `CCOc1cc(CNC2CC2)cc(Cl)c1OCc1ccc(F)cc1` is 1.96 µM; for `CCOc1cc(CNC2CCCC2)ccc1OCc1ccc(F)cc1` it is 10.3 µM (inactive).

The record behind these values is PubChem BioAssay AID652140 (Sanford-Burnham Center for Chemical Genomics, 2013).
